For data set [1], the system named is MDA-MB-231. Description: Antiproliferative activity against human MDA-MB-231 cells assessed as cell growth inhibition incubated for 72 hrs by MTS assay. Format: functional, cell-based. Particulars: MDA-MB-231, 72 h. Background: Tetrazolium assays rely on reduction of a dye to a coloured formazan, in cell work by metabolically active cells.
Data set [2] relates to MDA-MB-453. Description: Antiproliferative activity against human MDA-MB-453 cells assessed as cell growth inhibition incubated for 72 hrs by MTS assay. The format is functional, cell-based. Particulars: MDA-MB-453, 72 h.
For data set [3], the system named is RPMI-7951. Description: Antiproliferative activity against human RPMI-7951 cells assessed as cell growth inhibition incubated for 72 hrs by MTS assay. The format is functional, cell-based. Particulars: RPMI-7951, 72 h.
Data set [4] is described as follows: Metabolic stability in human liver microsomes assessed as half life in presence of NADPH regenerating system by UPLC-MS analysis. Format: ADME, Microsome. The note with it: microsomes.
The nature of data set [5]: Metabolic stability in human liver microsomes assessed as intrinsic clearance in presence of NADPH regenerating system by UPLC-MS analysis. Format: ADME, Microsome. Particulars: read-out: CLH. (Liver microsomes are a subcellular fraction often used to study metabolism.)
The target in data set [6] is hERG (KCNH2) (Homo sapiens, UniProt Q12809). Description: Inhibition of human ERG at 10 uM.
Chain of hERG (KCNH2) (Q12809 whole entry): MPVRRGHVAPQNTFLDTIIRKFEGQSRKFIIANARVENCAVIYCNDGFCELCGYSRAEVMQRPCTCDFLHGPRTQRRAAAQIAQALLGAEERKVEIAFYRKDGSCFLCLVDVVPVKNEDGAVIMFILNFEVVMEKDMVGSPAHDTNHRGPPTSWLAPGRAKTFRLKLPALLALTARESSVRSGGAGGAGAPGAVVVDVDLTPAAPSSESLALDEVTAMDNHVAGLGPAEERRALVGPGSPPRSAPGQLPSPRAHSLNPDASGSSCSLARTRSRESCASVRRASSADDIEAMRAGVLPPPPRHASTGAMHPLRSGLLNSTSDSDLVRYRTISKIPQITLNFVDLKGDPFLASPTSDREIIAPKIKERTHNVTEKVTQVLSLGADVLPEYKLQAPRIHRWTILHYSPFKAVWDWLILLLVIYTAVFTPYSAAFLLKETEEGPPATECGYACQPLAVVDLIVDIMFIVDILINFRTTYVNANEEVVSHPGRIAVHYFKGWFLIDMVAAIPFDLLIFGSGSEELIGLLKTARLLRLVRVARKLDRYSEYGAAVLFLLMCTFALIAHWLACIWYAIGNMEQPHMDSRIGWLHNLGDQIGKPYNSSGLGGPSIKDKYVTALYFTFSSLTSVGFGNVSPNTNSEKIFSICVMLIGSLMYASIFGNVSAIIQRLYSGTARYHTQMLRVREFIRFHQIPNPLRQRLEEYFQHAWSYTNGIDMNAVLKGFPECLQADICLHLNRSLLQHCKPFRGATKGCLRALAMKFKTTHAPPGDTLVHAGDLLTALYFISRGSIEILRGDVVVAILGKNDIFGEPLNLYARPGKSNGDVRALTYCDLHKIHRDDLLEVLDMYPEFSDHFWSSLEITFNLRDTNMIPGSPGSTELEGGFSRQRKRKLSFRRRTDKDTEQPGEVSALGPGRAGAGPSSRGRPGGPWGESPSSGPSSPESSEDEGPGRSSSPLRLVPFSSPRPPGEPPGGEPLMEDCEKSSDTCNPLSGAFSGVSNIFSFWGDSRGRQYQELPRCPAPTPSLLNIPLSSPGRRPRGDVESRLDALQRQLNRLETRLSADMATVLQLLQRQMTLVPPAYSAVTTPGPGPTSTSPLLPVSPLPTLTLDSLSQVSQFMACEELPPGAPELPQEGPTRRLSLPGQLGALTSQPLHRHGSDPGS
For data set [7], the target named is T1, CYP1A2 (description prints CYP1AA) (Homo sapiens, UniProt P05177).
T1 sequence (P05177 whole entry): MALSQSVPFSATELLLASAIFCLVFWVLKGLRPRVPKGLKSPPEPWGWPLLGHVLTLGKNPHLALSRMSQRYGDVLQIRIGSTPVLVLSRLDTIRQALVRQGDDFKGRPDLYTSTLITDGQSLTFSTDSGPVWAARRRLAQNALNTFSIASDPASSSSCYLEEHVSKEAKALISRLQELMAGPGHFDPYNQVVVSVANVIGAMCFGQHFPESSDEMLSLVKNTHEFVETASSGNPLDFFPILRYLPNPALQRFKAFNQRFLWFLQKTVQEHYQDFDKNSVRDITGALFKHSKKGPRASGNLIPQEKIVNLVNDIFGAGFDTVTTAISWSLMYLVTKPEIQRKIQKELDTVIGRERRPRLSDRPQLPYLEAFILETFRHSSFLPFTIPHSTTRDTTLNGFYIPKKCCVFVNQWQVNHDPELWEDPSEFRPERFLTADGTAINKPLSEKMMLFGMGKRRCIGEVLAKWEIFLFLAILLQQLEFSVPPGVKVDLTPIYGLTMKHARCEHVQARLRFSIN
Description: Inhibition of […] in human liver microsomes using phenacetin as substrate at 10 uM. Format: ADME. Particulars: probe phenacetin.

Data set [8] has as its system Salmonella typhimurium. Description: Mutagenicity in Salmonella typhimurium TA98 by Ames test. Format: toxicity, organism-based. Particulars: salmonella enterica subsp. enterica serovar typhimurium. A general note: The Ames test detects mutagens through reverse mutation in bacteria.
In data set [9] the test system is Salmonella typhimurium. Description: Mutagenicity in Salmonella typhimurium TA1537 by Ames test. Particulars: salmonella enterica subsp. enterica serovar typhimurium. Format: toxicity, organism-based.
Data set [10] is described as follows: Half life in NSG mouse at 10 mg/kg, ip. The format is ADME, organism-based. The note with it: in vivo.
The nature of data set [11]: AUClast in NSG mouse at 10 mg/kg, ip. Format: ADME, organism-based. More on the design: time 0 - last, route intraperitoneal, dose 10 mg/kg. Particulars: in vivo.
Data set [12] deals with MDA-MB-231. The data set can be described thus: Cytotoxicity against human MDA-MB-231 cells measured after 72 hrs […]. The format is functional, cell-based. Particulars: MDA-MB-231, 72 h.
The nature of data set [13]: Cytotoxicity against paclitaxel resistant human MDA-MB-231/TxR cells measured after 72 hrs […]. The format is functional, cell-based.
For data set [14], the system named is A375/TxR. Description: Induction of cell cycle arrest in human A375/TxR cells assessed as decrease in accumulation at S phase measured for 24 hrs by PI staining based flow cytometry analysis. Format: functional.
Data set [15] deals with A375/TxR. The data set can be described thus: Induction of cell cycle arrest in human A375/TxR cells assessed as accumulation at G2/M phase measured for 24 hrs by PI staining based flow cytometry analysis. Format: functional.
A short description of data set [16]: Antitumor activity against human A375/TxR cells xenografted in SCID mouse assessed as reduction in tumor volume at 10 mg/kg, ip administered 3 times/week for 18 days. Also on record: scale not given: the % may be the effect or the level left. The note with it: time 18 day. The format is functional.
The nature of data set [17]: Antitumor activity against human A375/TxR cells xenografted in SCID mouse assessed as tumor growth inhibition at 10 mg/kg, ip administered 3 times/week for 18 days. The format is functional. Also on record: scale not given: the % may be the effect or the level left. Particulars: time 18 day.
A short description of data set [18]: Antimetastatic activity against human A375/TxR cells xenografted in SCID mouse assessed as metastatic in liver at 10 mg/kg, ip. The format is functional.
Data set [19] can be described thus: Systemic toxicity in human A375/TxR cells xenografted in SCID mouse tumor model assessed as pathological change in lungs at 10 to 20 mg/kg, ip by H and E staining based analysis. Format: organism-based. The note with it: in vivo, dose 10-20 mg/kg.
Data set [20] can be described thus: Systemic toxicity in human A375/TxR cells xenografted in SCID mouse tumor model assessed as pathological change in kidney at 10 to 20 mg/kg, ip by H and E staining based analysis. Format: organism-based. The note with it: in vivo, dose 10-20 mg/kg.
The nature of data set [21]: Systemic toxicity in human A375/TxR cells xenografted in SCID mouse tumor model assessed as pathological change in spleen at 10 to 20 mg/kg, ip by H and E staining based analysis. Format: organism-based. The note with it: in vivo, dose 10-20 mg/kg.
The nature of data set [22]: Tmax in NSG mouse at 10 mg/kg, ip. The format is ADME, organism-based. Particulars: in vivo.
Data set [23] in a line: Induction of cell cycle arrest in human A375/TxR cells assessed as accumulation at G2/M phase at 10 nM measured for 24 hrs by PI staining based flow cytometry analysis.

Broadly, the IC50 is the point on the concentration scale where inhibition reaches its midpoint. For orientation: inhibition means the relative decrease from the control value, in per cent. The term half-life denotes the time needed for the level to fall by half in the phase considered. The Tmax is the time from dosing to the highest level. Regarding `COc1cc(C(=O)c2nc(-c3ccc(C)c(O)c3)ccc2F)cc(OC)c1OC`, the IC50 in data set [1] was 2.2 nM; in data set [2], 1.4 nM; in data set [3], 2.4 nM; in data set [12] it was 5.8 nM; in data set [13] it was 2.1 nM. The t1/2 in [4] came out at 29.4 min. Besides, in [5], the CLint scaled was 42.3 mL/min/kg. The inhibition at 10 µM in data set [6] turned out to be 5.14%; in data set [7] it was 50.9%. Also, the Activity entry is “Non-Toxic” in data set [8]; “Non-Toxic” in [9]; “Dose-Dependent Effect” in [14]; “Dose-Dependent Effect” in data set [15]; 57.6% in [16]; 44.4% in data set [17]. The Activity is on record as 33% in [18]; “Non-Toxic” in data set [19]; “Non-Toxic” in data set [20]; “Non-Toxic” in data set [21]; 62% in data set [23]. In data set [10], the half-life is 263 min. In [11], this compound returned an AUClast of 4872.07 h/ng/mL. Besides, the time to peak (Tmax) in data set [22] came to 10.2 min.
